Series [1] relates to HCT116 human colon carcinoma xenograft. Kind of series: HCT116 xenograft model (hypoxic tumor). In kind it is in vivo, nude mice. On the procedure:
(§1) Human tumor cell lines HCT116 (ATCC #CRL-247; Schroy PC, et al. Cancer 76:201-209, 1995) and 786-O (ATCC #CRL-1932; Williams RD, et al. In Vitro 12:623-627, 1976), were obtained from the American Type Culture Collection (Manassus, Va., USA) were cultured using routine methods until a sufficient number of cells were obtained for implantation. Studies were conducted on animals between 7 and 12 weeks of age at implantation. To implant HCT116 tumor cells into nude mice, the cells were trypsinized, washed in PBS and resuspended at a concentration of 75×10^6 cells/ml in McCoy's modified medium with 50% of BD Matrigel® Basement Membrane Matrix (BD Biosciences®, Bedford, Mass., USA). To implant 786-O tumor cells into nude mice, the cells were trypsinized as above, washed in PBS and resuspended at a concentration of 75×10^6 cells/ml in RPMI 1640 medium with 50% of BD Matrigel® Basement Membrane Matrix. Using a 27 gauge needle and 1 cc syringe, 0.1 ml of the cell suspension was injected into the corpus adiposum of nude mice. The corpus adiposum is a fat body located in the ventral abdominal vicera in the right quadrant of the abdomen at the juncture of the os coxae (pelvic bone) and the os femoris (femur). The location permits palpation and measurement of the tumors using external calipers. Tumor volumes (V) were calculated by caliper measurement of the width (W), length (L) and thickness (T) of tumors using the following formula: V=0.5236×(L×W×T). Animals were randomized into treatment groups so that the average tumor volumes of each group were similar at the start of dosing.
(§2) A tumor model in which the tumors have relatively high and low levels of LDH5, indicating high and low levels of hypoxia, using human tumor cell lines HCT116 and 786-O was established as set forth in the previous example.
(§3) As above, HCT116 and 786-O cells were cultured and implanted into nude mice using the methods in the previous example. Tumor growth was measured using calipers. Prior to treatment with the various agents, tumors were permitted to develop in vivo until they reached approximately 150 mm^3 in volume, which typically required 2-3 weeks following implantation. Animals were randomized into treatment groups so that the average tumor volumes of each group were similar at the start of dosing.
(§4) Tumor volume was monitored throughout the course of the study, until up to about 40 days from the date of tumor implantation. The exact number of days of the study depended on a number of factors including, for example, the number of days from implantation for the tumors to reach the desired volume.

The subject of series [2] is 786-O human renal carcinoma xenograft. Kind of series: 786-O xenograft model (non-hypoxic tumor). The format is in vivo, nude mice. On the procedure: as §1, §2, §3, §4
In series [3] the test system is HCT116 tumors vs 786O tumors. Kind of series: response of hypoxic vs non-hypoxic tumors. The format is in vivo, nude mice. As to conditions: doses as in the 3rd table.
Series [4] relates to metastatic colorectal cancer. As to conditions: cited from earlier work.
The test system of series [5] is metastatic colorectal cancer. As to conditions: cited from earlier work. This is another data set of the same source.
Series [6] has as its system metastatic pancreatic cancer. As to conditions: cited from earlier work.
For series [7], the system named is advanced non-squamous, non-small cell lung cancer (NSCLC). Particulars: bevacizumab arm = with paclitaxel and carboplatin; comparator chemotherapy alone; statistically significant; cited from earlier work.
Series [8] concerns glioblastoma. Particulars: 85 patients treated with bevacizumab alone; cited from earlier work.
The subject of series [9] is glioblastoma. As to conditions: 56 patients treated with bevacizumab alone; cited from earlier work.
The test system of a further series is renal cancer. As to conditions: cited from earlier work.
In series [10] the test system is HER2-negative, metastatic breast cancer. As to conditions: added to standard chemotherapy; cited from earlier work.
Series [11] deals with wide range of cancer types. Particulars: cited from earlier work.
Another series concerns solid tumors. As to conditions: once-weekly dosing; cited from earlier work.
The test system of series [12] is cancer of the parotid gland. As to conditions: one patient; ganetespib 150 mg/m^2 with docetaxel 75 mg/m^2; cited from earlier work.
Series [13] relates to advanced relapsed/refractory NSCLC. As to conditions: cited from earlier work.
For another series, the system named is breast cancer. As to conditions: xenograft models; cited from earlier work.
Series [14] has as its system advanced pancreatic cancer. Particulars: Phase II, combination with Gemcitabine; cited from earlier work.
Series [15] has as its system advanced pancreatic cancer. As to conditions: Phase III, combination with Gemcitabine; cited from earlier work.
Series [16] relates to previously treated metastatic renal cell carcinoma (mRCC). As to conditions: Phase III, 2010; cited from earlier work.

Read-outs that look alike come from different tables or passages of the source.

With “bevacizumab: recombinant humanized monoclonal IgG1 antibody that binds to and inhibits human vascular endothelial growth factor (VEGF)”, the “tumor growth as compared to control” value is reported as “reduced the growth of the tumor” in [1] (bevacizumab higher dose (4 mg/kg) i.p., p=0.0424) and “small trend to decreased tumor growth” in [1] (bevacizumab lower concentration (1 mg/kg) i.p., p=0.1274). Moreover, the “tumor burden as compared to control” value in [2] (bevacizumab higher dose (4 mg/kg) i.p., p=0.011) is given as “greatest tumor burden”; in [2] (low dose bevacizumab (1 mg/kg) i.p., p=0.437) it was “no significant difference in tumor burden”. In addition, the “effectiveness at slowing tumor growth in tumors with high levels of hypoxia (HCT116) compared with low levels (786O)” value in series [3] is reported as “more effective”. Moreover, the median survival in series [4] (bevacizumab arm = bevacizumab plus 5-FU/Leucovorin, comparator 5-FU/Leucovorin alone, not statistically significant) is 16.6 months; in [5] (bevacizumab and 5-FU/Leucovorin (n=249) vs IFL regimen alone), 17.9 months. Besides, the “improvement in median survival” value in [4] (bevacizumab plus 5-FU/Leucovorin vs 5-FU/Leucovorin alone) is recorded as 29%. The progression-free survival in series [5] (bevacizumab plus 5-FU/Leucovorin vs IFL regimen alone) is on record as 8.7 months. Also, the “progression free survival HR” value in series [6] (bevacizumab vs placebo arm, both with gemcitabine and erlotinib, 95% CI 0.61 to 0.96, P=0.0002) is 0.73. Moreover, the median overall survival in series [6] (bevacizumab, gemcitabine and erlotinib, 306 patients) was 7.1 months; in series [7], 12.5 months. The “patients whose tumors shrank” value in the series with glioblastoma [8] was 26%. Further, in the series on glioblastoma [9], the patients who responded was 20%. In addition, in the series on renal cancer (bevacizumab arm = with interferon-alpha, comparator interferon-alpha alone), the “patients with decreased tumor size” value is 30%. For the same compound, the “increase in progression-free survival time compared to interferon-alpha alone” value in the series on renal cancer (bevacizumab with interferon-alpha) is reported as “about 5 months”. The “keeping cancer from worsening” value in series [10] was “does not keep cancer from worsening for a long enough time to be clinically meaningful”.
`CC(C)c1cc(-c2nnc(O)n2-c2ccc3c(ccn3C)c2)c(O)cc1O` [ganetespib]: in [3], the “effectiveness at slowing tumor growth in tumors with high levels of hypoxia (HCT116) compared with low levels (786O)” value is “not found to work better”. In series [11], the “activity against cancers resistant to imatinib, sunitinib, erlotinib and dasatinib” value is reported as “potent activity”. The “activity against a wide range of cancer types” value in series [11] (lung, prostate, colon, breast, gastric, pancreatic, GIST, melanoma, AML, CML, lymphomas, multiple myeloma, in vitro and in vivo models) is on record as “potent activity”. Moreover, the “evaluable patients with disease control” value in the series on solid tumors is on record as “more than half”. Moreover, in the series with solid tumors, the “outcome in several patients who had progressed or failed multiple prior therapies” value is “substantial tumor shrinkage and prolonged disease control”. The “shrinkage of target tumor lesions, confirmed partial response” value in [12] is listed as “over 50%”. The “patients with durable, objective responses” value in series [13] (ALK rearrangement, four patients) is 50%. Besides, the “patients who received ganetespib for 16 weeks or more” value in series [13] (ALK rearrangement, seven of eight) is recorded as 88%. In addition, the “patients with tumor shrinkage” value in series [13] (ALK rearrangement, six of eight patients) was 75%; in series [13] (tumors with a KRAS mutation), 62%. The disease control rate in [13] (broad population) is given as 54%. The “hepatic and ocular toxicities” value in [13] (compared with other Hsp90 inhibitors) was “did not have the serious hepatic or common ocular toxicities”. The tolerability entry in series [13] (in vivo) is “well tolerated”.
As for `CNC(=O)c1ccccc1Sc1ccc2c(/C=C/c3ccccn3)n[nH]c2c1` [Axitinib, N-Methyl-2-[[3-[(E)-2-pyridin-2-ylethenyl]-1H-indazol-6-yl]sulfanyl]benzamide], in the series with breast cancer, the “growth of breast cancer” value was “significantly inhibit growth”. Besides, the response entry in [14] is reported as “good response”. Also, in [15], the “survival rates over Gemcitabine alone” value is on record as “no evidence of improved survival rates”. For the same compound, the “progression-free survival compared to sorafenib” value in series [16] was “significantly extended progression-free survival”.

These data come from patent US20120128665A1, “PRESELECTION OF SUBJECTS FOR THERAPEUTIC TREATMENT BASED ON HYPOXIC STATUS” (SYNTA PHARMACEUTICALS CORP., priority 2010, published 2012).
